Results from patent publication US7732658B2, “Composition and method for imaging cells” (Dana Farber Cancer Institute, Inc., priority 2002, dated 2010).

Tests used:
[1] = tested on: 32D/p210-Luc cells; experiment: CML model, 32D/p210-Luc cells imaged in vivo; parameters: species or system mice
Text: FIG. 21 is a representation showing the results of a CML model used to evaluate the ABL-inhibitor AMN107.

[2] = tested on: multiple myeloma (MM) model; experiment: multiple myeloma (MM) model, cells selected for growth in bone; type: in vivo
Text: FIG. 19 is a representation of the results of generating a multiple myeloma (MM) model, that was created by selecting cells with affinity for growth in bone.

[3] = tested on: TS(4;11)-LucNeo cells; experiment: in vivo bioluminescence imaging of mice bearing MLL leukemia cell line TS(4;11), drug treatment
Text: FIG. 15 is a pictorial representation of treatment of mice bearing MLL leukemia cell line TS(4;11) with the FLT3 inhibitor PKC-412.

Cc1cn(-c2cc(NC(=O)c3ccc(C)c(Nc4nccc(-c5cccnc5)n4)c3)cc(C(F)(F)F)c2)cn1 [AMN107]
tumor cell growth of 32D/p210-Luc cells (quantitative) ([1]; FIG. 22): inhibits tumor cell growth
efficacy against 32D/p210-Luc cells in vivo (qualitative) ([1]; five animals, nine day assay, FIG. 21): efficacious

Nc1ncnc2c1c(-c1cccc(OCc3ccccc3)c1)cn2C1CC(CN2CCCC2)C1 (stereo not drawn) [ADW]
tumor burden ([2]; FIG. 19): reduction of tumor burden
survival as compared to untreated control ([2]; FIG. 20): positively correlated with survival

CO[C@@H]1[C@H](N(C)C(=O)c2ccccc2)C[C@H]2O[C@]1(C)n1c3ccccc3c3c4c(c5c6ccccc6n2c5c31)C(=O)NC4 [PKC-412]
tumor cell size ([3]; mice bearing TS(4;11) MLL cells, FIG. 16 left graph): reduces tumor cell size
bioluminescent flux as compared to controls ([3]; nude mice, TS(4;11)-LucNeo cells, 150 mg/kg/day over a two week period): constant bioluminescent flux
